According to article PMC11626117 (Proceedings of the National Academy of Sciences of the …, 2024):

Assays:
CoaA [1] = target: T1, CoaA (Mycobacterium tuberculosis, UniProt P9WPA7)
CoaA [2] = target: T1, CoaA; assay: ADP-Glo luminescent kinase assay; format: biochemical; settings: 5 mM ATP, 50 mM HEPES, 25 mM KCl, 20 mM MgCl2, 30 min

T1 sequence (P9WPA7 whole entry, looked up): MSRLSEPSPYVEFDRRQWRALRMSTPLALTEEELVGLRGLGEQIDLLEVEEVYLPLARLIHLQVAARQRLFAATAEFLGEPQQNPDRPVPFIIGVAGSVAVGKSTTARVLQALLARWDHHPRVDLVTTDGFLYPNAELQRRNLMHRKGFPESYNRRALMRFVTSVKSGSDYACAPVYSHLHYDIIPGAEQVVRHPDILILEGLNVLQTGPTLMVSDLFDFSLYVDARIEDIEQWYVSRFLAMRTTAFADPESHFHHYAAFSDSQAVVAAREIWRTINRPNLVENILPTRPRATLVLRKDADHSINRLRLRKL

| SMILES | ADP-Glo luminescent kinase assay (CoaA [1]) | Michaelis-Menten curve, constant not given (CoaA [2]) |
| --- | --- | --- |
| Nc1ncnc2c1ncn2[C@@H]1O[C@H](COP(=O)(O)OP(=O)(O)OP(=O)(O)O)[C@@H](O)[C@H]1O [ATP] | CoaA showed robust ATPase activity | – |
| CC(C)(CO)[C@@H](O)C(=O)NCCC(=O)O [pantothenate] | – | CoaA showed robust ATPase activity |
